Data reported in the supplement of paper PMC10307832.

Tests used:
Assay in all cases: relative viability (nuclei count vs DMSO), 5 days (fraction); higher = more cells survive
[1] = compound: CC1=CC=C(C=C1)C(=O)CN2C3=C(CCCC3)SC2=N [Pifithrin_alpha] + CC(=O)Nc1cccc(-n2c(=O)n(C3CC3)c(=O)c3c(Nc4ccc(I)cc4F)n(C)c(=O)c(C)c32)c1 [Trametinib] (partner 0.02 µM)
In short: (§1)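 Relative viability equals treated-well nuclei counts divided by vehicle-well nuclei counts. Counts came from 4× images of lung cancer cell lines grown in 1536-well plates for 5 days after pin-tool dosing on the day after seeding. Dosing used one drug alone or a fixed anchor-drug dose plus five library-drug doses (not always all listed) in √10 steps, and values are medians of duplicate plates.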

[2] = compound: CC1=CC=C(C=C1)C(=O)CN2C3=C(CCCC3)SC2=N [Pifithrin_alpha] + COc1cccc2cc(-c3nc([C@H]4CC[C@H](C(=O)O)CC4)n4ncnc(N)c34)[nH]c12 [OSI-027] (partner 0.5 µM)
In short: as §1

Bemcentinib + Linsitinib = compound: Nc1nc(Nc2ccc3c(c2)CC[C@@H](N2CCCC2)CC3)nn1-c1cc2c(nn1)-c1ccccc1CCC2 [Bemcentinib] + C[C@]1(O)C[C@@H](c2nc(-c3ccc4ccc(-c5ccccc5)nc4c3)c3c(N)nccn32)C1 [Linsitinib] (partner 1 µM)
In short: as §1

Bemcentinib + Tozasertib = compound: Nc1nc(Nc2ccc3c(c2)CC[C@@H](N2CCCC2)CC3)nn1-c1cc2c(nn1)-c1ccccc1CCC2 [Bemcentinib] + Cc1cc(Nc2cc(N3CCN(C)CC3)nc(Sc3ccc(NC(=O)C4CC4)cc3)n2)n[nH]1 [Tozasertib] (partner 0.1 µM)
In short: as §1

Cell Line	relative viability ([1]; first compound 1 µM)	relative viability ([1]; first compound 3.162 µM)	relative viability ([1]; first compound 10 µM)	relative viability ([1]; first compound 31.62 µM)	relative viability ([1]; first compound 100 µM)	relative viability ([2]; first compound 1 µM)	relative viability ([2]; first compound 3.162 µM)	relative viability ([2]; first compound 10 µM)	relative viability ([2]; first compound 31.62 µM)	relative viability ([2]; first compound 100 µM)	relative viability (Bemcentinib + Linsitinib; first compound 0.04 µM)	relative viability (Bemcentinib + Linsitinib; first compound 0.1265 µM)	relative viability (Bemcentinib + Linsitinib; first compound 0.4 µM)	relative viability (Bemcentinib + Linsitinib; first compound 1.265 µM)	relative viability (Bemcentinib + Linsitinib; first compound 4 µM)	relative viability (Bemcentinib + Tozasertib; first compound 0.04 µM)	relative viability (Bemcentinib + Tozasertib; first compound 0.1265 µM)	relative viability (Bemcentinib + Tozasertib; first compound 0.4 µM)	relative viability (Bemcentinib + Tozasertib; first compound 1.265 µM)	relative viability (Bemcentinib + Tozasertib; first compound 4 µM)
NCI-H2009	0.26	0.265	0.253	0.218	0.234	0.601	0.663	0.62	0.431	0.456	1.21	1.25	1.14	1.17	1.21	0.741	0.785	0.765	0.569	0.677
NCI-H2023	0.512	0.386	0.324	0.213	0.214	0.305	0.3	0.204		0.213	0.689	0.721	0.821	0.877	0.678	0.484	0.438	0.433	0.295	0.273
NCI-H2085	0.452	0.444	0.461	0.463	0.445		0.781	0.473	0.505	0.398	0.842	0.977	0.837	0.9	0.855	0.788	0.974	0.69	0.797	0.757
NCI-H2087	0.178	0.196	0.169	0.183	0.165	0.417	0.499	0.483		0.605	0.957	0.975	1.09	0.891	1.09	0.226	0.251	0.276	0.28	0.252
NCI-H2126	0.456	0.503	0.487	0.445	0.452		0.671	0.594	0.658	0.563	0.706	0.693	0.659	0.76	0.781	0.896	0.822	0.788	0.856	0.837
NCI-H2228	0.611	0.482	0.499	0.384	0.436	0.589	0.574	0.526	0.392	0.283		0.627	0.733	0.585	1.11	0.182	0.249	0.216	0.251	0.271
NCI-H2347	0.301	0.335	0.24	0.293	0.221	0.467	0.467	0.431	0.328	0.367	0.959	1.04	0.943	0.951	0.871	0.56	0.602	0.525	0.593	0.72
NCI-H2405		0.604	0.544	0.567	0.601	0.494	0.639	0.583	0.58	0.579	0.874	0.966	0.965	0.918	0.896	0.733	0.783	0.702	0.74	0.671
